# Source: patent US10927136B2, “Phosphorus prodrugs of pyrazolo-substituted pyrimidine sGC stimulators” (Cyclerion Therapeutics, Inc., priority 2016, dated 2021)
# Experiments:
# [1] = Ex-vivo rat intestinal fluid stability assay; format: in vitro ADME; design: half-life: dose or concentration left out as unconfirmed; conditions: 37° C.; for prodrug converted into its parent drug: after 30 minutes of incubation; for half-life: rat intestinal (jejunum) fluid, read-out: disappearance half-life (T1/2)
# Method: Phosphate prodrugs disclosed herein were designed to be cleaved by alkaline phosphatase(s) that are present on the apical brush-border membranes of the intestine, after which the more hydrophobic parent compound is readily absorbed. Phosphatases are also present in the liver and in the systemic circulation. In order to test the speed of cleavage of the prodrug into the parent drug, […] solutions of each of the test compounds were incubated in rat intestinal (jejunum) fluid. Samples were taken at times=0, 5, 15, 30 and 60 min and the mixtures were quenched by the addition of acetonitrile containing an internal standard. Samples were analyzed by full scan LC/MS. The following protocol was used:
# 10 mM DMSO stock solutions were thawed or prepared for the positive control (Enalapril) and each test article. Internal standard (IS) crash solution in acetonitrile (ACN) with 20 ng/ml of Compound Z, depicted below, was prepared. Stock (250 uM) was prepared from 10 mM in 50/50 acetonitrile/H2O. Rat intestinal fluid vials were thawed in a water bath at rt.
# In a 96-well, 1 ml plate, 48 uL of rat intestinal fluid was aliquoted in triplicate for each time point. The t0 (“0 min”) time point was prepared separately by adding 450 ul of IS crash solution to 48 ul of intestinal fluid, then adding 2 uL of test compound. 2 ul of the 250 uM substock was added to initiate the reaction at 5 min, 15 min, 30 min, and 60 min. The plate prepared in the above steps was covered with a plastic or foil seal and was set in the 37° C. incubator, lightly shaking. For each time point, 450 ul of IS crash solution was added to quench the reaction. The plates were centrifuged at 4000 RPM for 10 minutes at 4° C. 50 ul of supernatant was transferred into 50 ul of H2O and analyzed using LC/MS.
# The disappearance of the prodrug and the conversion to the parent were monitored over time.
# [2] = known; cited from earlier work
# [3] = cited from earlier work
# [4] = human microsomes, after 15 min; cited from earlier work
prodrug converted into its parent drug [1],prodrug remaining uncleaved ([1]; after 60 minutes of incubation),half-life [1],prodrug converted into its parent drug / cleaved ([1]; after 60 minutes of incubation),Structure (SMILES),cleavage to the parent drug in vivo [2],human half-life (from published data) [3],"quantifiable fostamatinib in subjects ([3]; human clinical trials, oral dosing, after the 2-hour time point)",hydrolysis of prodrug [4]
about 25%,less than 10%,–,–,O=P(O)(O)OC1(CNc2nc(-c3cc(-c4ccon4)n(Cc4ccccc4F)n3)ncc2F)CCOCC1 [Compound I-3],–,–,–,–
–,About 80%,211 min,–,O=P(O)(O)OC(Cn1cncn1)(Cn1cncn1)c1ccc(F)cc1F [fosfluconazole],known to cleave slowly to the parent drug in vivo,90 to 150 min,–,–
More than 80%,no prodrug could be detected,5 min,–,O=C1NC(c2ccccc2)(c2ccccc2)C(=O)N1COP(=O)(O)O [fosphenytoin],known to cleave to the parent drug quickly in vivo,8 to 15 min,–,–
About 50%,–,34 min,About 80%,COc1cc(Nc2ncc(F)c(Nc3ccc4c(n3)N(COP(=O)(O)O)C(=O)C(C)(C)O4)n2)cc(OC)c1OC [fostamatinib],known to cleave to the parent drug quickly in vivo,–,no quantifiable fostamatinib was observed,fully hydrolized
